Results on 15 molecules are retold here after patent US20250122181A1, “BENZIMIDAZOLES AS MODULATORS OF IL-17” (Janssen Pharmaceutica NV, priority 2021, published 2025).

Assay [1] concerns the target IL-17A(FLAG-Tagged): IL-17RA(His-Tagged) (Homo sapiens, UniProt Q16552, K93Q). The assay can be described thus: IL-17A(FLAG-Tagged): IL-17RA(His-Tagged) Binding Disruption Eu-HTRF Assay, Protocol 1. Conditions: Protocol 1, FLAG tagged IL-17A 2.5 nM; simple average if tested more than once. From the text:
An antibody directed against the FLAG tag of IL-17A (SEQ ID NO: 1) is labeled with the HTRF donor chromophore (Europium-cryptate). IL-17A is present as a dimer that is “locked into” this quaternary structure due to the formation of loop-spanning […] disulfide bridges. The construct of IL-17RA used in the assay excludes the […] portion of the receptor and is fused to a C-terminal 10×His tag (SEQ ID NO:2). An antibody directed against the His tag of the IL-17RA chimera is labeled with the HTRF acceptor chromophore (“D2”). The fluorescence-resonance energy transfer (FRET) depends on the vicinity of the donor chromophore to the acceptor, and interruption of the binding between the IL-17A and IL-17RA causes the reduction/loss of FRET. Therefore, this assay allows to evaluate the compound effect on the binding IL-17A and IL-17RA by monitoring the fluorescence intensity of donor vs acceptor. The assay was run using either Protocol 1 or Protocol 2 as described below.
Protocol 1. 40 nl of 2-fold serial diluted compound solution for total 22 dilution points is added into each well of a 1536-well, white, low-volume, non-binding plate (Greiner #782904), then 2 μl of FLAG tagged IL-17A at 2× final concentration (2.5 nM) in solution of PBS+0.01% Triton-X100 is added to each well. The assay plate is briefly centrifuged then incubated for 1 h at rt. A mixed solution is prepared containing 2×5 nM 10HIS×IL-17RA, 2×2.5 nM Eu-anti-FLAG (CISBIO), 2×5 nM D2-anti-HIS (CISBIO) in PBS+0.01% Triton-X100+200 mM Potassium Fluoride (Sigma 60238) and 2 μl of mix is added to each well of the assay plate. The plate is briefly centrifuged then incubated for 2 h at rt. The HTRF intensities at the wavelength of donor (620 nm) and acceptor (665 nm) are measured using BMG Pherastar. The ratio between intensities at two wavelengths is calculated and plotted against the compound concentration and the data is fitted to a one-site competition model to yield IC50 of the compound.

In assay [2] the test system is IL-17A-induced G-CSF production in human normal keratinocyte (NHK). The assay can be described thus: NHK Assay: IL-17A-induced G-CSF production in human normal keratinocyte. Format: cell-based. Particulars: Homo sapiens, Keratinocyte, 24 h, IL-17A 5 ng/mL, simple average if tested more than once. The essentials:
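Compound titrations are first mixed with recombinant human IL-17A for 1 h at room temperature. The mixture goes onto adult normal human keratinocytes (final IL-17A 5 ng/mL, 5% FBS, 0.2% DMSO) for 24 h at 37 °C. Secreted G-CSF is then measured by HTRF and IC50 fitted.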

Sequence of UniProt Q16552 (Q16552 with tags, fused parts or gaps K93Q): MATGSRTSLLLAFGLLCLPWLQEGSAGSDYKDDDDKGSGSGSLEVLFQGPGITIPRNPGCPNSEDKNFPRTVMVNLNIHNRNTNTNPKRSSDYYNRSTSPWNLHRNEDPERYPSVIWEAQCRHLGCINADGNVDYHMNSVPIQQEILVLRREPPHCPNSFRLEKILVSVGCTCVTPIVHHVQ

As for `Cc1nonc1C(=O)N[C@@H](COC(C)(C)C(F)(F)F)c1nc2cc(CN3C[C@](C)(C(F)(F)F)NC3=O)ccc2[nH]1` (relative stereo) [Example 57, 4-Methyl-N—((R*)-1-(5-(((R*)-4-methyl-2-oxo-4-(trifluoromethyl)imidazolidin-1-yl)methyl)-1H-benzo[d]imidazol-2-yl)-2-((1,1,1-trifluoro-2-methylpropan-2-yl)oxy)ethyl)-1,2,5-oxadiazole-3-carboxamide], the IC50 in assay [1] was under 50 nM; in assay [2] it was over 100 nM.

In the case of `Cc1nonc1C(=O)N[C@@H](COC(C)(C)C(F)(F)F)c1nc2cc(CN3C[C@@](C)(C(F)(F)F)NC3=O)ccc2[nH]1` (relative stereo) [Example 58, 4-Methyl-N—((R*)-1-(5-(((S*)-4-methyl-2-oxo-4-(trifluoromethyl)imidazolidin-1-yl)methyl)-1H-benzo[d]imidazol-2-yl)-2-((1,1,1-trifluoro-2-methylpropan-2-yl)oxy)ethyl)-1,2,5-oxadiazole-3-carboxamide], the IC50 in assay [1] and in assay [2] was under 50 nM in each case.

For `[2H]C1([2H])[C@@H](C(F)(F)F)NC(=O)N1[C@H](COC1CC1)c1ccc2[nH]c([C@H](COC(C)(C)C(F)(F)F)NC(=O)c3nonc3C)nc2c1` (relative stereo) [Example 59, N—((R*)-1-(5-((S*)-2-Cyclopropoxy-1-((S*)-2-oxo-4-(trifluoromethyl)imidazolidin-1-yl-5,5-d2)ethyl)-1H-benzo[d]imidazol-2-yl)-2-((1,1,1-trifluoro-2-methylpropan-2-yl)oxy)ethyl)-4-methyl-1,2,5-oxadiazole-3-carboxamide], the IC50 in assay [1] and in assay [2] was under 50 nM each time.

For the molecule `CC(C)(OC[C@H](NC(=O)c1nonc1C1CC1)c1nc2cc(CN3C[C@](C)(C(F)(F)F)NC3=O)ccc2[nH]1)C(F)(F)F` (relative stereo) [Example 60, 4-Cyclopropyl-N—((R*)-1-(5-(((R*)-4-methyl-2-oxo-4-(trifluoromethyl)imidazolidin-1-yl)methyl)-1H-benzo[d]imidazol-2-yl)-2-((1,1,1-trifluoro-2-methylpropan-2-yl)oxy)ethyl)-1,2,5-oxadiazole-3-carboxamide], the IC50 in assay [1] and in assay [2] was under 50 nM throughout.

As to `CC(C)(OC[C@H](NC(=O)c1nonc1C1CC1)c1nc2cc(CN3C[C@@](C)(C(F)(F)F)NC3=O)ccc2[nH]1)C(F)(F)F` (relative stereo) [Example 61, 4-Cyclopropyl-N—((R*)-1-(5-(((S*)-4-methyl-2-oxo-4-(trifluoromethyl)imidazolidin-1-yl)methyl)-1H-benzo[d]imidazol-2-yl)-2-((1,1,1-trifluoro-2-methylpropan-2-yl)oxy)ethyl)-1,2,5-oxadiazole-3-carboxamide], the IC50 in assay [1] and in assay [2] was under 50 nM each time.

With `Cc1nonc1C(=O)NC(COC(C)(C)C(F)(F)F)c1nc2cc([C@@H](C)N3C[C@@H](C(F)(F)F)NC3=O)ccc2[nH]1` (single isomer, unassigned) [Example 6, 4-Methyl-N—((R*)-1-(5-((R)-1-((S)-2-oxo-4-(trifluoromethyl)imidazolidin-1-yl)ethyl)-1H-benzo[d]imidazol-2-yl)-2-((1,1,1-trifluoro-2-methylpropan-2-yl)oxy)ethyl)-1,2,5-oxadiazole-3-carboxamide], the IC50 in assay [1] and in assay [2] was under 50 nM throughout.

Consider `Cc1nonc1C(=O)NC(c1nc2cc([C@@H](C3CC3)N3C[C@@H](C(F)(F)F)NC3=O)ccc2[nH]1)[C@@H](C)O[C@H](C)C(F)(F)F` (single isomer, unassigned) [Example 10, N-((1R*,2R)-1-(5-((R)-Cyclopropyl((S)-2-oxo-4-(trifluoromethyl)imidazolidin-1-yl)methyl)-1H-benzo[d]imidazol-2-yl)-2-(((R)-1,1,1-trifluoropropan-2-yl)oxy)propyl)-4-methyl-1,2,5-oxadiazole-3-carboxamide], for which the IC50 in assay [1] and in assay [2] was under 50 nM in each case.

Turning to `[2H]C1([2H])[C@@H](C(F)(F)F)NC(=O)N1[C@@H](c1ccc2[nH]c([C@@H](NC(=O)c3nonc3C)[C@@H](C)O[C@@H](C)C(F)(F)F)nc2c1)C1CC1` (single isomer, unassigned) [Example 11], the IC50 in assay [1] and in assay [2] was over 100 nM throughout.

Take `Cc1nonc1C(=O)NC(c1nc2cc([C@@H](C3CC3)N3C[C@@H](C(F)(F)F)NC3=O)ccc2[nH]1)[C@@H](C)O[C@@H](C)C(F)(F)F` (single isomer, unassigned) [Example 13, N-((1R*,2R)-1-(5-((R)-Cyclopropyl((S)-2-oxo-4-(trifluoromethyl)imidazolidin-1-yl)methyl)-1H-benzo[d]imidazol-2-yl)-2-(((S)-1,1,1-trifluoropropan-2-yl)oxy)propyl)-4-methyl-1,2,5-oxadiazole-3-carboxamide]: the IC50 in assay [1] and in assay [2] was under 50 nM throughout.

In the case of `C[C@H](O[C@H](C)C(NC(=O)c1ccnn1C)c1nc2cc([C@@H](C3CC3)N3C[C@@H](C(F)(F)F)NC3=O)ccc2[nH]1)C(F)(F)F` (single isomer, unassigned) [Example 14, N-((1R*,2R)-1-(5-((R)-Cyclopropyl((S)-2-oxo-4-(trifluoromethyl)imidazolidin-1-yl)methyl)-1H-benzo[d]imidazol-2-yl)-2-(((S)-1,1,1-trifluoropropan-2-yl)oxy)propyl)-1-methyl-1H-pyrazole-5-carboxamide], the IC50 in assay [1] and in assay [2] was under 50 nM each time.

On to `CC(C)n1nccc1C(=O)NC(c1nc2cc([C@@H](C3CC3)N3C[C@@H](C(F)(F)F)NC3=O)ccc2[nH]1)[C@@H](C)O[C@@H](C)C(F)(F)F` (single isomer, unassigned) [Example 15, N-((1R*,2R)-1-(5-((R)-Cyclopropyl((S)-2-oxo-4-(trifluoromethyl)imidazolidin-1-yl)methyl)-1H-benzo[d]imidazol-2-yl)-2-(((S)-1,1,1-trifluoropropan-2-yl)oxy)propyl)-1-isopropyl-1H-pyrazole-5-carboxamide], for which the IC50 in assay [1] and in assay [2] was under 50 nM throughout.

`CC(C)(OC[C@@H](NC(=O)c1nonc1C1CC1)c1nc2cc(CN3C[C@@H](C(F)(F)F)NC3=O)ccc2[nH]1)C(F)(F)F` (single isomer, unassigned) [Example 16]: the IC50 in assay [1] and in assay [2] was over 100 nM in each case.

Consider `Cc1nonc1C(=O)NC(COC(C)(C)C(F)(F)F)c1nc2nc([C@@H](C3CC3)N3CC(F)(F)CNC3=O)ccc2[nH]1` (single isomer, unassigned) [Example 18, N—((R*)-1-(5-((R)-Cyclopropyl(5,5-difluoro-2-oxotetrahydropyrimidin-1(2H)-yl)methyl)-1H-imidazo[4,5-b]pyridin-2-yl)-2-((1,1,1-trifluoro-2-methylpropan-2-yl)oxy)ethyl)-4-methyl-1,2,5-oxadiazole-3-carboxamide], for which the concentration for half-maximal inhibition (IC50) is under 50 nM in assay [1] and 50 to 100 nM in assay [2].

`Cc1nonc1C(=O)NC(c1nc2nc([C@@H](C3CC3)N3CC(F)(F)CNC3=O)ccc2[nH]1)[C@@H](C)O[C@H](C)C(F)(F)F` (single isomer, unassigned) [Example 19, N-((1R*,2R)-1-(5-((R)-Cyclopropyl(5,5-difluoro-2-oxotetrahydropyrimidin-1(2H)-yl)methyl)-1H-imidazo[4,5-b]pyridin-2-yl)-2-(((R)-1,1,1-trifluoropropan-2-yl)oxy)propyl)-4-methyl-1,2,5-oxadiazole-3-carboxamide]: the IC50 in assay [1] was under 50 nM; in assay [2], 50 to 100 nM.

As to `C[C@@H](O[C@H](C)C(F)(F)F)C(NC(=O)c1nonc1C1CC1)c1nc2nc([C@@H](C3CC3)N3CC(F)(F)CNC3=O)ccc2[nH]1` (single isomer, unassigned) [Example 20, 4-Cyclopropyl-N-((1R*,2R)-1-(5-((R)-cyclopropyl(5,5-difluoro-2-oxotetrahydropyrimidin-1(2H)-yl)methyl)-1H-imidazo[4,5-b]pyridin-2-yl)-2-(((R)-1,1,1-trifluoropropan-2-yl)oxy)propyl)-1,2,5-oxadiazole-3-carboxamide], the IC50 in assay [1] and in assay [2] was under 50 nM in each case.

A word on the IC50: it is the concentration that gives 50% inhibition. A higher IC50 goes with lower potency.
